According to patent US10081609B2, “Compounds for inducing proliferation and differentiation of cells, and methods of use thereof” (The Broad Institute, Inc., priority 2013, dated 2018):
Values after ≈ are worked out from the molar mass of the structure shown. Where two headings read alike, the source gives them in different places.

Tests used:
iHeps [1] = assay: Cytochrome P450 activity in treated iHeps; format: cell-based; conditions: iHeps treated for 9 days
Excerpt: iPS Cells were differentiated into iHeps, treated with selected compounds of the invention for 9 days, then assayed for CYP functions. The general CYP activity of the iHeps treated with compounds of the invention were elevated (FIG. 20A).

Plasma stability - Human = format: in vitro ADME
Method: (§1) Selected compounds of the invention were evaluated for physico-chemical properties, including solubility, microsomal stability, protein binding and plasma stability (Table 2).
(§2) Selected compounds of the invention were evaluated for physico-chemical properties, including solubility, microsomal stability, protein binding and plasma stability (Table 3).

[2] = Solubility in PBS with 1% DMSO; format: physicochemical; conditions: aqueous buffer, kinetic from dmso stock
Method: as §1, §2

Protein binding - Human = format: in vitro ADME
Method: as §1, §2

[3] = tested on: human primary hepatocytes; assay: Expansion of compound-treated human primary hepatocytes (cell counts, Ki67 staining); format: cell-based; conditions: for proliferation of hepatocytes: FIG. 11A
Method: The metabolic phenotype of the treated hepatocytes was assessed for canalicular transport. […] Gene expression profiling confirmed that there was no significant differences between FPH-treated and untreated hepatocytes (FIG. 11D).
The ability of compounds 201-212, 215, 217 and 244-258 to expand human primary hepatocytes in vitro was also tested.

[4] = tested on: human iPS-derived hepatocyte-like cells (iHeps); assay: In vitro maturation of iHeps: ELISA of albumin and AFP; format: cell-based; conditions: iHeps treated for 9 days
Method: The in vitro maturation effects of selected compounds of the invention on human iPS-derived hepatocyte-like cells (iHeps) were evaluated. Human iPS cells were differentiated into iHeps and treated with selected compounds of the invention for 9 days. Maturity of treated iHeps was evaluated through ELISA quantification of mature (albumin) and immature (AFP) markers. Results are illustrated in FIG. 19.

[5] = Microsomal stability - Human; format: in vitro ADME; conditions: for Microsomal stability No NADPH: non-enzymatic microsomal mechanisms only; for Microsomal stability Average: enzymatic and non-enzymatic microsomal mechanisms
Method: as §1, §2

iHeps [6] = assay: Differentiation and maturation of iHeps (albumin/AFP ELISA, staining, CYP3A4 activity); format: cell-based, human; conditions: for AFP secretion (ELISA) / albumin secretion (ELISA): treatment from day 21, 9 days
Method: Undifferentiated iPS cells were cultured on Matrigel, supported by primary mouse embryonic fibroblasts. Once confluent, iPS cells were transitioned to differentiation media, with sequential addition of growth factors (Activin A, BMP-4, bFGF, HGF, and OSM) to guide differentiation, first into endoderm, then into hepatic progenitor cells and finally into iHeps. Compound treatment started on day 21 post initiation of differentiation and acted over a period of 9 days.
Consistent with the literature, untreated cultures had islands that double stain for albumin and the fetal marker AFP, with very little presence of the mature marker […].
The ability of compounds 201-212, 217 and 244-258 to affect the differentiation of iHeps was also tested.

human hepatocytes = assay: CYP450 induction control in human hepatocytes; format: cell-based; conditions: 250 μM
Method: To confirm the staining results, secreted levels of albumin and AFP via ELISA, and CYP450 activities through isoenzyme-specific probes that are either fluorescent or luminescent were measured. ELISA results verified both an increase in albumin secretion and a decrease in AFP secretion by treated iHeps (FIG. 4D bottom). CYP3A4 activity increased by 16 and 45 times upon treatment with FH1 and FPH2, respectively. […] Induction was considered as a possible explanation for these elevations in CYP450 activity. However, this was unlikely based on the following experiments. […] Since a period of at least 48 hrs separated compound treatment and the measurement of CYP450 activity, the iHeps were expected to have recovered from any general elevations in CYP450 activity.

[7] = tested on: human primary hepatocytes; assay: High-throughput liver platform, primary screening: hepatocyte proliferation by automated high-content imaging (hepatocyte nuclei numbers); format: cell-based; conditions: for hit class in the high-throughput liver platform: human primary hepatocytes
Method: In order to avoid species-specific differences and cell line mutations, the screen was conducted with human primary hepatocytes. Traditionally, chemical screening on such cells has been hindered by their availability in large quantities as well as their rapid loss of viability and phenotype in vitro. Recent advances in cryopreservation technologies allowed enough primary human cells to be stored for screening; these cells are maintained through co-cultivation with non-parenchymal cells. Co-cultures of primary human hepatocytes with murine embryonic J2-3T3 fibroblasts were recently shown to maintain normal hepatocyte phenotype for weeks. These in vitro platforms consisted of hepatocytes surrounded by a co-planar population of fibroblasts. While sufficient for stabilizing hepatocyte functions in vitro, such platforms may limit normal hepatocyte expansion due to contact inhibition. Thus, for this screen, a sparse population of hepatocytes was co-cultivated on top of a confluent feeder layer of J2-3T3 fibroblasts within 384-well plates (FIG. 1A top). This screening platform stabilized hepatocyte phenotypic functions in vitro (FIG. 1A bottom) and was compatible with two separate high-throughput readouts developed for this screen.
The primary readout detected hepatocyte proliferation via automated high-content imaging. This assay quantified hepatocyte nuclei numbers, using nuclear morphologies to separate the hepatocyte and fibroblast subpopulations that co-exist within the screening platform. When visualized with Hoechst stain, hepatocyte nuclei were smaller and more uniform in texture while fibroblast nuclei were larger and punctated (FIG. 1A bottom). Leveraging this distinction, automated image analyses was developed that utilized machine learning algorithms to classify nuclei types and tabulate hepatocyte nuclei numbers. […] Besides quantifying hepatocyte nuclei that have completed mitosis, the number of nuclei in the process of mitosis were also quantified. Two additional analysis pipelines were built to detect nuclear morphologies consistent with cells undergoing metaphase and anaphase.
FIG. 1B top summarizes the workflow of the screen. Primary screening was done on human primary hepatocytes, preconditioned for seven days by non-parenchymal cells in the screening platform. Upon stabilization in vitro, cultures were treated with the chemical library for 48 hours. All compounds were tested in duplicates, at a single concentration of 15 μM. This single concentration was selected via a pilot screen of ˜2,000 small molecules. All 12,480 small molecules were initially tested on a single donor of cryopreserved hepatocytes (donor a) in order to eliminate noise from donor-to-donor variability. Following compound treatment, media supernatants were collected for functional analyses via ELISA and cultures were fixed in 4% paraformaldehyde for proliferation analyses via imaging.
To identify proliferation hits, three image-based readouts—one each to quantify the number of (1) hepatocyte nuclei in interphase, (2) nuclei in metaphase and (3) nuclei in anaphase—were integrated. z Scores were converted into p values, which were then used to generate ranked lists of compounds based on the efficacy and consistency of effects across the different proliferation readouts. Efficacy was assessed by the product of p values (pprod=pinter×pmeta×pana); consistency was evaluated by the maximum of p values (pmax=max(pinter, pmeta, pana). Compounds were considered proliferation hits if pprod<1×10^−6 and pmax<0.25. Functional hits were selected by an ELISA […]. Compounds with ELISA z>3.0 were eliminated as toxic. 93 compounds met all hit selection criteria, qualifying as Functional Proliferation Hits (FPH); FIG. 1B bottom illustrates the types of compounds that constituted this set of hits.

[8] = tested on: transgenic lfabp:GFP zebrafish; assay: Liver development in transgenic lfabp:GFP zebrafish embryos; format: in vivo; conditions: exposure 24 to 72 hrs post fertilization
Excerpt: The effects of FH1 and PH1 on liver development were examined in transgenic lfabp:GFP zebrafish, in which GFP expression is restricted to the liver. Zebrafish embryos were allowed to develop normally for 24 hrs post fertilization and then exposed to either FH1 or PH1 until 72 hrs post fertilization (FIG. 8A). Livers were visualized by whole-mount fluorescence imaging (FIG. 8B) and lfabp in situ hybridization (FIG. 8C).

[9] = tested on: lfabp:GFP zebrafish embryos; assay: Therapeutic window after a non-fatal dose of APAP in zebrafish embryos (liver size); format: in vivo; conditions: 5 mM APAP for 24 hrs before 24 hour treatment
Method: The current clinical treatment for APAP toxicity is the administration of NAC, which has a limited window of efficacy. To examine the therapeutic window of FH1 and PH1 efficacy, lfabp:GFP zebrafish embryos were allowed to develop normally for 48 hrs post fertilization, and then exposed to a non-fatal dose of 5 mM APAP for 24 hrs before initiation of treatment with FH1 or PH1 for an additional 24 hour period (FIG. 10A).

[10] = tested on: iPS-derived endothelial cells; assay: Differentiation of iPS-derived endothelial cells (nitric oxide); format: cell-based
Method: Cells were assayed for nitric oxide (NO), a mature marker for endothelial cells. CB=FPH2, M=FH1, E=PH1, while Null and DMSO are control runs with no additive and vehicle only, respectively.

| Plasma stability Average (Plasma stability - Human) | solubility ([2]; read-out: Solubility Average) | solubility ([2]; read-out: Solubility Rep1) | solubility ([2]; read-out: Solubility Rep2) | solubility ([2]; read-out: Solubility Rep3) | Protein binding Average (Protein binding - Human) | Protein binding Rep1 (Protein binding - Human) | Protein binding Rep2 (Protein binding - Human) | Microsomal stability Rep1 [5] | Microsomal stability Rep2 [5] | Microsomal stability No NADPH [5] | Microsomal stability Average [5] | Structure (SMILES) | proliferation of hepatocytes [3] | also measured |
| --- | --- | --- | --- | --- | --- | --- | --- | --- | --- | --- | --- | --- | --- | --- |
| 104.2 % remaining | > 100 µM | > 100 µM | > 100 µM | > 100 µM | 12.0 % bound | 11.8 % bound | 12.1 % bound | 99.4 % remaining | 95.3 % remaining | 102.3 % remaining | 97.4 % remaining | C[C@H]1CN([C@@H](C)CO)C(=O)CCCn2cc(nn2)CO[C@H]1CN(C)C(=O)C1CC1 [Compound 108, N-(((4R,5S,Z)-7-((S)-1-hydroxypropan-2-yl)-5-methyl-8-oxo-11H-3-oxa-7-aza-1(4,1)-triazolacycloundecaphane-4-yl)methyl)-N-methylcyclopropanecarboxamide] | induced proliferation | experimental range of effective concentrations, CYP2A6 (iHeps [1]): 10 to 20 µM; experimental range of effective concentrations, CYP3A4 (iHeps [1]): 6.7 to 13.3 µM; experimental range of effective concentrations, CYP3A7 (iHeps [1]): 6.7 to 10 µM; experimental range of effective concentrations, general CYP activity (general BFC) (iHeps [1]): 6.7 to 13.3 µM; experimental range of effective concentrations, albumin (mature marker) [4]: 5 to 13.3 µM; hepatocyte phenotype of treated iHeps (iHeps [6]): more mature hepatocyte phenotypes; AFP secretion (ELISA) (iHeps [6]): decreased; albumin secretion (ELISA) (iHeps [6]): increased |
| 98.0 % remaining | 25 µM (≈ 13.7 µg/mL) | 23 µM (≈ 12.6 µg/mL) | 28 µM (≈ 15.3 µg/mL) | 24 µM (≈ 13.1 µg/mL) | 99.3 % bound | 99.3 % bound | 99.3 % bound | 53.9 % remaining | 58.1 % remaining | 104.2 % remaining | 56.0 % remaining | C[C@H](CO)N1C[C@H](C)[C@H](CN(C)C(=O)Nc2ccc(F)cc2)Oc2ncc(-c3cc4ccccc4o3)cc2C1=O [Compound 106, 1-(((2R,3S)-8-(benzofuran-2-yl)-5-((R)-1-hydroxypropan-2-yl)-3-methyl-6-oxo-3,4,5,6-tetrahydro-2H-pyrido[2,3-b][1,5]oxazocin-2-yl)methyl)-3-(4-fluorophenyl)-1-methylurea] | induced proliferation | albumin staining (immunofluorescent) (iHeps [6]): dramatic increases; hepatocyte phenotype of treated iHeps (iHeps [6]): more mature hepatocyte phenotypes; AFP secretion (ELISA) (iHeps [6]): decreased; albumin secretion (ELISA) (iHeps [6]): increased |
| 87.1 % remaining | 41 µM (≈ 22.5 µg/mL) | 33 µM (≈ 18.1 µg/mL) | 47 µM (≈ 25.8 µg/mL) | 41 µM (≈ 22.5 µg/mL) | 99.5 % bound | 99.4 % bound | 99.5 % bound | 52.4 % remaining | 59.3 % remaining | 94.4 % remaining | 55.8 % remaining | C[C@H](CO)N1C[C@H](C)[C@H](CN(C)C(=O)Nc2ccc(F)cc2)Oc2ncc(C#Cc3ccc(F)cc3)cc2C1=O [Compound 107, 3-(4-fluorophenyl)-1-(((2R,3S)-8-((4-fluorophenyl)ethynyl)-5-((R)-1-hydroxypropan-2-yl)-3-methyl-6-oxo-3,4,5,6-tetrahydro-2H-pyrido[2,3-b][1,5]oxazocin-2-yl)methyl)-1-methylurea] | induced proliferation | experimental range of effective concentrations, CYP2A6 (iHeps [1]): 10 to 26.7 µM; experimental range of effective concentrations, CYP3A4 (iHeps [1]): 6.7 to 20 µM; experimental range of effective concentrations, CYP3A7 (iHeps [1]): 10 to 13.3 µM; experimental range of effective concentrations, general CYP activity (general BFC) (iHeps [1]): 13.3 µM; Ki67 staining co-localized with Hoechst and human albumin stains [3]: increased; experimental range of effective concentrations, albumin (mature marker) [4]: 5 to 20 µM |
|  |  |  |  |  |  |  |  |  |  |  |  | O=c1cc(-c2ccccc2)oc2ccc3ccccc3c12 [BNF, β-naphthoflavone] |  | CYP450 activity (human hepatocytes): elevated |
|  |  |  |  |  |  |  |  |  |  |  |  | CSc1ccccc1NC(=O)CN(c1cc(Cl)ccc1C)S(C)(=O)=O [Compound 102, 2-(N-(5-chloro-2-methylphenyl)methylsulfonamido)-N-(2-(methylthio)phenyl)acetamide] |  | proliferation Z score (hepatocyte nuclei count) [7]: 2.24; hit class in the high-throughput liver platform [7]: proliferation-only hit |
|  |  |  |  |  |  |  |  |  |  |  |  | CCCCC[C@H](O)/C=C/[C@H]1[C@H](O)CC(=O)[C@@H]1C/C=C\CCCC(=O)O [PGE2, Prostaglandin E2, reference compound] |  | hit class in the high-throughput liver platform [7]: FPH |
|  |  |  |  |  |  |  |  |  |  |  |  | CCCCOc1cc(CC2CNC(=O)N2)ccc1OC (stereo not shown) [PH1, 4-(3-butoxy-4-methoxybenzyl)imidazolidin-2-one] |  | liver size compared to DMSO-treated controls [8]: increased; embryonic liver size / liver mass after APAP compared to controls [9]: mitigated APAP-induced loss of liver mass; differentiation of iPS-derived endothelial cells (nitric oxide) [10]: induce differentiation |
